Legend:
[1] = Solubility of the active ingredient in Solvesso 200 ND; type: physicochemical; details: at room temperature; at higher concentrations the active ingredient crystallizes out in the capsule
Description: At higher concentrations, the active ingredient crystallizes out in the capsule.

[2] = cited from earlier work

CC1(C)CON(Cc2ccc(Cl)cc2Cl)C1=O [DCPMI, 2-[(2,4-dichlorophenyl)methyl]-4,4′-dimethyl-3-isoxazolidinone]
solubility of the active ingredient in Solvesso 200 ND [1]: 35 % by weight | water solubility [2]: 39.5 ppm

CC1(C)CON(Cc2ccccc2Cl)C1=O [clomazone, 2-(2-chlorobenzyl)-4,4-dimethyl-1,2-oxazolidin-3-one]
water solubility [2]: 1000 ppm
